Columns and labels:
[1] = cited from earlier work
AAV2 = AAV2 release after cell lysis (physical titer by ELISA, genome titer by qPCR); format: cell-based; settings: for increase of AAV2 dissociation by addition to 0.5 M NaCl: 1% detergent added to 0.5 M NaCl, FIG. 2; for AAV2 viral titers after cell lysis: 90 min, 37° C., 0.5% Triton X-100, 0.5 M NaCl, or 0.5 M sodium chloride and 1% TDAO, FIG. 1 and 2
Procedure: (§1) An AAV2 suspension upstream process is performed including a cell lysis step using various single reagents, like Triton X-100 (T100) or TDAO at various concentrations or 0.5 M NaCl, all at 37° C. The samples were centrifuged at ~13000 g for 5 min at different time points post lysis, and supernatants were removed and stored at -70° C. for assays. Physical titers were measured by enzyme-linked immunosorbent assay (ELISA) using an AAV2 Titration ELISA kit (Progen) following manufacturer’s protocol, genome titers were measured by quantitative PCR (qPCR) targeting a specific sequence within the transfer vector. All reagents and assay protocols are from MilliporeSigma unless otherwise specified. Among all the conditions tested, 0.5 M NaCl was the only one capable of releasing significant amounts of AAV2 at physical titer of e10 vp/mL and genome titer of e9 gc/mL levels (FIG. 1). Moreover, time-dependent effects from 30 min to 90 min post lysis for all 3 single reagents, and concentration-dependent effects from 0.5% to 1% for both single detergents have been observed (FIG. 1).
The same process is performed as in Example 1 but with NaCl combined with different detergents.
To investigate the optimal concentration of TDAO in combination with 0.5 M NaCl, an AAV2 dissociation test using 0 to 4% of TDAO and including an additional lysis time of 60 min was performed. […] Furthermore, the best lysis time of 90 min was confirmed as before based on genome titers. When calculating % full viral particles (vp) as the ratio of genome titer to physical titer, it was noted that 2% TDAO also facilitated more release of full viral particles over time with ~100% full VP at 90 min post lysis due to unknown mechanisms (FIG. 4).

HEK293T-derived cells = test: Turbidity post lysis and % cell lysis (ViCell XR) in 3L Mobius bioreactor; format: cell-based, human; settings: AAV2, 3L Mobius at 72 hr PT; NaCl at 0.5 M; lysed cells to total cells before lysis
Procedure: Cell lysis performed according to the general procedure of Example 1 was performed with different reagents and compared in terms of turbidity reduction and lysis efficiency.
Each turbidity in Table 2 is an average of 1-3 bioreactors x 2 measurements. PT = post transfection. […] Cell counts were taken by ViCell XR before lysis and at 30 min post lysis, and % cell lysis was calculated as a ratio of lysed cells to total cells before lysis.

AAV9 = AAV9 release after cell lysis (titers as in Example 1); format: cell-based; settings: with NaCl, FIG. 5
Procedure: as §1
An AAV9 suspension upstream process is performed as in Example 1 but using both single reagents and double reagents combined with NaCl.

## CCCCCCCC[N+](C)(C)[O-] [N,N-Dimethyloctyl amine N-oxide]
[1]
  biodegradation in 28 days: 100%

## CCCCCCCCCCCC[N+](C)(C)[O-] [LDAO, N,N-Dimethyldode cylamine N-oxide]
[1]
  biodegradation in 28 days: 95%

## CCCCCCCCCCCCCCCC[N+](C)(C)[O-] [N,N-Dimethylhexa decylamine N-oxide]
[1]
  biodegradation in 28 days: <88%

## Triton X-100 [reference compound]
AAV2
  increase of AAV2 dissociation by addition to 0.5 M NaCl: not
  AAV2 viral titers after cell lysis: significantly reduced viral titers

## CCCCCCCCCC[N+](C)(C)[O-] [N,N-Dimethyldecyl amine N-oxide]
[1]
  biodegradation in 28 days: 97%

## [Cl-].[Na+] [NaCl, sodium chloride, reference compound]
AAV2
  AAV2 viral titers after cell lysis: significantly reduced viral titers
HEK293T-derived cells
  % cell lysis after 30 min: 80%

## CCCCCCCCCCCCCC[N+](C)(C)[O-] [TDAO, N,N-Dimethyltertra decylamine N-oxide]
[1]
  biodegradation in 28 days: 88%
AAV2; 0 to 4% of TDAO, genome titers, FIG. 3
  increase of AAV2 dissociation by addition of TDAO to 0.5 M NaCl: 3-5 fold
AAV2
  increase of AAV2 dissociation by addition to 0.5 M NaCl: 3-9 fold
AAV2; 2% TDAO with 0.5 M NaCl, 90 min post lysis, FIG. 4
  % full viral particles (ratio of genome titer to physical titer): ~ 100%
AAV9
  AAV9 dissociation, double reagents with 2% TDAO compared to 1% TDAO: no benefits

From patent US20230183656A1, “METHODS AND COMPOSITIONS FOR PURIFYING ADENO ASSOCIATED VIRUS PARTICLES OR ADENOVIRUSES” (Merck Patent GmbH, priority 2020, published 2023)
